Measurements taken from US11434250B2, “Pyrazolo[1,5a]pyrimidine derivatives as IRAK4 modulators” (Genentech, Inc., priority 2017, dated 2022).
In brackets after ≈: the same amount, converted by molar mass.

Key:
human IRAK4 = human IRAK4 (Homo sapiens (Human), UniProt Q9NWZ3); assay: IRAK4 enzymatic assay (Transcreener fluorescence polarization, ADP detection); type: biochemical; conditions: recombinant full-length IRAK4; 125 uM ATP; 90 min
Procedure: Compounds were assayed for inhibition of human IRAK4 and IRAK1 catalytic activity using recombinant enzyme produced from insect cells. Full-length IRAK4 protein, carrying an N-terminal His6-Tag, was obtained from Life Technologies (Carlsbad, Calif., USA). The IRAK1 construct was produced internally and was comprised of IRAK1 residues Arg194 to Ser712, preceded by an NH2-terminal His6 tag and the coding sequence for glutathione-S-transferase.
Kinase activities were assayed using the Transcreener-Fluorecescence polarization platform (BelBrook Labs, Madison, Wis., USA) that measures amounts of the reaction product, ADP. […] Final IRAK4 assay conditions were 1.25 nM IRAK4; 125 uM ATP; 10 uM MgC2; 125 uM peptide in reaction buffer (25 mM HEPES (pH7.4); 2 mM Dithiothreitol; 0.015% Brij-35; and 0.5% dimethyl sulfoxide. The IRAK1 activity was optimized similarly, yielding final assay conditions of […] IRAK1; 62.5 uM ATP; 5 uM MgCl2, and 62.5 uM IRAK1 peptide in reaction buffer for 60 min.
Assays of compounds for kinase inhibition were performed using inhibitors serially-diluted in dimethyl sulfoxide, which was accomplished with a LabCyte Echo 555 liquid dispenser. 384 well assay plates spotted with compound received 4 ul of a 2× substrate (ATP+peptide) mix in reaction buffer, followed by 4 ul of 2× enzyme diluted in reaction buffer. Reactions were halted at 60 (IRAK1) or 90 (IRAK4) min by addition of 6 ul of detection buffer, containing EDTA ([…] final concentration), 0.95 ug of the ADP-binding antibody ADP2, ADP tracer (3 nM final concentration), and […] HEPES. Following a 1 hr incubation, fluorescence polarization of the ADP2-antibody::TRACER complex was read on a Tecan M1000 plate reader using a 635/20 excitation filter in combination with a 670/20 emission filter. Delta milli-P values were analyzed using Genedata software to fit dose-response curves and compute compound Ki values, using ATP Km values of 642 um and 83.2 uM for IRAK4 and IRAK1, respectively. Table 3 provides IRAK4 Ki values for representative compounds of the present invention.

[1] = Plasma protein binding using rapid equilibrium dialysis (RED); type: in vitro ADME; conditions: pH 7.4, human plasma, 37° C., read-out: Human PPB (converted)
Procedure: Plasma protein binding was measured in duplicate using rapid equilibrium dialysis (RED) device ((Thermo Scientific Pierce) in a 96-well format. Briefly, 10.0 μL drug or control compounds (0.5 mM in DMSO) was mixed with 1000 μL plasma (pH adjusted to 7.4) from various species (BioreclamationIVT). Aliquots of 300 μL drug/plasma mixture were placed into the donor side chamber of a single-use RED plate, and 500 μL aliquots of PBS buffer were placed into the adjacent chamber as the receiver side. The plate was incubated on an orbital shaker at 400 rpm, at 37° C. for 4 hours. After completion of incubation, 50 μL aliquots from the PBS buffer side were mixed with 5 μL of blank plasma matrix, and 5 μL from the donor side (plasma) were mixed with 50 μL blank PBS buffer. All samples were then crashed with 200 μL acetonitrile (containing internal standard) to precipitate plasma proteins. The samples were centrifuged at 3750 rpm for 10 min to pellet the proteins. The supernatants were carefully transferred to a fresh 96-well plate, and diluted with an equivalent volume of water. The samples were then analyzed by LC-MS/MS (ABI 4000, ABI Sciex). Data acquisition and processing was performed with Analyst 1.6.1 and Multiquant 2.1. The percent of protein binding and fraction unbound (fu) in matrix was calculated from taking the ratio of responses (peak areas) on the receiver side (buffer) to those on the donor side (plasma). The ratios were normalized to the internal standard.

Kinetic solubility assay = type: physicochemical; conditions: for solubility kinetic at 24 h: PBS buffer with 2% DMSO, aqueous buffer, kinetic from dmso stock, PBS buffer pH 7.4, 2% DMSO, 24 hours shaking at room temperature, UHPLC-CLND; for Fold improvement in kinetic solubility: example compound versus its matched pair phenyl compound
Procedure: The kinetic solubility assay started with compound DMSO stock solutions. This assay used Millipore Multiscreen 96-well filter plates for the 24 hour equilibration shaking. Samples were prepared by adding 4 μL of the 10 mM compound DMSO stock solutions into 196 μL of PBS buffer pH 7.4 in the 96-well filter plates, yielding a compound concentration of 200 μM and 2% DMSO. The filter plate was sealed with aluminum sealing film and shaken at room temperature for 24 hours at 1000 rpm. When shaking has completed, the solutions were filtered into a clean 96-well plate utilizing a vacuum manifold. After filtration, some precipitate is often observed at the bottom of the filtration plate wells. Most of the precipitates appear to be crystalline under a polarizing light microscope. The filtrate samples were diluted by a factor of 2 using PBS pH7.4 buffer and then transferred to a 384-well plate for analysis by UHPLC-CLND (CLND: Chemiluminescence nitrogen detector). 5 μL of each sample was injected twice into the UHPLC-CLND for two repeat analysis.
Samples were detected and analyzed using UV 254 nm and CLND. UV 254 nm is used primarily to confirm the sample purity but in rare cases, is also used to quantify the concentration of compounds with no nitrogens, where additional work is done to create a compound specific calibration curve. The identification of CLND target peaks of each compound were confirmed by LCMS. Sample quantification was accomplished by CLND peak intensity, the calibration curve, and the number of nitrogen contained in the compound. One calibration curve of caffeine was used for solubility quantitative determination. A fresh calibration curve was created for every batch. The number of nitrogens in a compound used for this quantification was corrected for the actual configuration of the nitrogen in the compound.

Chain of human IRAK4 (Q9NWZ3 whole entry, the tested form may be a part): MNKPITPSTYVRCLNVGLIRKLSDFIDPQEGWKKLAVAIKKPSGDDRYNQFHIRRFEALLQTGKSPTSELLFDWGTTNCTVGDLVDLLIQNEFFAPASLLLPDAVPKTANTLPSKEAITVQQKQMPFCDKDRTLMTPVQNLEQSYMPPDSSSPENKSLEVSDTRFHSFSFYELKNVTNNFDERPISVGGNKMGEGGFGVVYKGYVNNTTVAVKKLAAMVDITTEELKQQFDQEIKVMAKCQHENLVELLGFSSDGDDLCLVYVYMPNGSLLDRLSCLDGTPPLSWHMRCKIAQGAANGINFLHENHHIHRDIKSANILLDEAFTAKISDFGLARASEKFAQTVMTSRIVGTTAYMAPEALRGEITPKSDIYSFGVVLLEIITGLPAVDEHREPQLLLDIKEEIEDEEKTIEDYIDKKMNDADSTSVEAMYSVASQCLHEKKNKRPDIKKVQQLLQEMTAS

Row | SMILES | Ki (human IRAK4) | fraction unbound at 4 h, 5 µM [1] | solubility kinetic at 24 h (Kinetic solubility assay) | Fold improvement in kinetic solubility (Kinetic solubility assay)
1 | C[C@@]1(CO)Cc2cc(NC(=O)c3cnn4cccnc34)c(N3CCN(CC(F)F)CC3)nc2O1 (stereo in doubt) [Example 20, N-[rac-(2S)-6-[4-(2,2-difluoroethyl)piperazin-l-yl]-2-(hydroxymethyl)-2-methyl-3H-furo[2,3-b]pyridin-5-yl]pyrazolo[1,5-a]pyrimidine-3-carboxamide] | 9.1 nM |  |  | 
2 | CC1(C)Cc2cc(NC(=O)c3cnn4cccnc34)c(N3CCN(CC(N)=O)CC3)nc2O1 [Example 6, N-[6-[4-(2-amino-2-oxo-ethyl)piperazin-1-yl]-2,2-dimethyl-3H-furo[2,3-b]pyridin-5-yl]pyrazolo[1,5-a]pyrimidine-3-carboxamide] | 4 nM | 0.226 | 143 µM (≈ 64.4 µg/mL) | 14.6
3 | C[C@]1(CO)Cc2cc(NC(=O)c3cnn4cccnc34)c(N3CCN(CC(F)F)CC3)nc2O1 (stereo in doubt) [Example 21, N-[rac-(2R)-6-[-(2,2-difluoroethyl)piperazin-l-yl]-2-(hydroxymethyl)-2-methyl-3H-furo[2,3-b]pyridin-5-yl]pyrazolo[1,5-a]pyrimidine-3-carboxamide] | 13 nM | 0.363 | 124 µM (≈ 58.7 µg/mL) | 27.0
4 | Cc1cnc2c(C(=O)Nc3cc4c(nc3N3CCN(CC(N)=O)CC3)O[C@@](C)(CO)C4)cnn2c1 (single isomer, unassigned) [Example 16] | 5.5 nM |  |  | 
5 | CC1(C)Cc2cc(NC(=O)c3cnn4cccnc34)c(OCC3CC3)nc2O1 [Example 17, N-[6-(cyclopropylmethoxy)-2,2-dimethyl-3H-furo[2,3-b]pyridin-5-yl]pyrazolo[1,5-a]pyrimidine-3-carboxamide] | 6.4 nM |  |  | 
6 | Cc1cnc2c(C(=O)Nc3cc4c(nc3N3CCN(CC(N)=O)CC3)O[C@](C)(CO)C4)cnn2c1 (single isomer, unassigned) [Example 15] | 6.6 nM |  |  | 
7 | CC1(CO)Cc2cc(NC(=O)c3cnn4cccnc34)c(N3CCOCC3)nc2O1 (stereo in doubt) [Example 11, (R)—N-(2-(hydroxymethyl)-2-methyl-6-morpholino-2,3-dihydrofuro[2,3-b]pyridin-5-yl)pyrazolo[1,5-a]pyrimidine-3-carboxamide] |  |  |  | 13.7
8 | CC1(C)Cc2cc(NC(=O)c3cnn4cccnc34)c(N3CCOC[C@H]3CO)nc2O1 (single isomer, unassigned) [Example 7] | 2400 nM |  |  | 
9 | CC(C)(O)[C@@]1(C)Cc2cc(NC(=O)c3cnn4cccnc34)c(N3CCOCC3)nc2O1 (single isomer, unassigned) [Example 14] | 48 nM |  |  | 
10 | CC1(C)Cc2cc(NC(=O)c3cnn4cccnc34)c(N3CCOC[C@@H]3CO)nc2O1 (single isomer, unassigned) [Example 8] | 820 nM |  |  | 
11 | Cc1cnc2c(C(=O)Nc3cc4c(nc3N3CCC(CO)CC3)OC(C)(C)C4)cnn2c1 [Example 3, N-(6-(4-(Hydroxymethyl)piperidin-1-yl)-2,2-dimethyl-2,3-dihydrofuro[2,3-b]pyridin-5-yl)-6-methylpyrazolo[1,5-a]pyrimidine-3-carboxamide] | 4.1 nM |  | 7.5 µM (≈ 3.27 µg/mL) | 7.5
12 | C[C@@]1(O)COc2nc(N3CCN(CC(F)F)CC3)c(NC(=O)c3cnn4cccnc34)cc2C1 (stereo in doubt) [Example 19, N-[rac-(3S)-7-[4-(2,2-difluoroethyl)piperazin-l-yl]-3-hydroxy-3-methyl-2,4-dihydropyrano[2,3-b]pyridin-6-yl]pyrazolo[1,5-a[pyrimidine-3-carboxamide] | 31 nM |  | 177 µM (≈ 83.8 µg/mL) | 31.6
13 | CC1(C)Cc2cc(NC(=O)c3cnn4cccnc34)c(N3CCC(CO)CC3)nc2O1 [Example 2, N-(6-(4-(Hydroxymethyl)piperidin-1-yl)-2,2-dimethyl-2,3-dihydrofuro[2,3-b]pyridin-5-yl)pyrazolo[1,5-a]pyrimidine-3-carboxamide] | 4.2 nM | 0.074 |  | 
14 | CC1(C)Cc2cc(NC(=O)c3cnn4cccnc34)c(N3CCN(CCO)CC3)nc2O1 [Example 4, N-(6-(4-(2-Hydroxyethyl)piperazin-1-yl)-2,2-dimethyl-2,3-dihydrofuro[2,3-b]pyridin-5-yl)pyrazolo[1,5-a]pyrimidine-3-carboxamide] | 33 nM |  |  | 
15 | CC(C)(O)[C@]1(C)Cc2cc(NC(=O)c3cnn4cccnc34)c(N3CCOCC3)nc2O1 (single isomer, unassigned) [Example 13] | 91 nM |  |  | 
16 | CC1(C)Cc2cc(NC(=O)c3cnn4cccnc34)c(N3CCC(F)(CO)CC3)nc2O1 [Example 5, N-[6-[4-Fluoro-4-(hydroxymethyl)-1-piperidyl]-2,2-dimethyl-3H-furo[2,3-b]pyridin-5-yl]pyrazolo[1,5-a]pyrimidine-3-carboxamide] | 5.6 nM |  | 112 µM (≈ 49.3 µg/mL) | 43.1
17 | CN1Cc2cc(NC(=O)c3cnn4cccnc34)c(N3CCOCC3)nc2C1=O [Example 12, N-(6-Methyl-2-morpholino-7-oxo-6,7-dihydro-5H-pyrrolo[3,4-b]pyridin-3-yl)pyrazolo[1,5-a]pyrimidine-3-carboxamide] | 540 nM |  | 39 µM (≈ 15.3 µg/mL) | 5.7
18 | C[C@]1(O)COc2nc(N3CCN(CC(F)F)CC3)c(NC(=O)c3cnn4cccnc34)cc2C1 (stereo in doubt) [Example 18, N-[rac-(3R)-7-[4-(2,2-difluoroethyl)piperazin-l-yl]-3-hydroxy-3-methyl-2,4-dihydropyrano[2,3-b]pyridin-6-yl]pyrazolo[1,5-a]pyrimidine-3-carboxamide] | 210 nM |  | 167 µM (≈ 79.1 µg/mL) | 12.8
19 | CC1(CO)Cc2cc(NC(=O)c3cnn4cccnc34)c(N3CCOCC3)nc2O1 (stereo in doubt) [Example 10, (S)—N-(2-(Hydroxymethyl)-2-methyl-6-morpholino-2,3-dihydrofuro[2,3-b]pyridin-5-yl)pyrazolo[1,5-a]pyrimidine-3-carboxamide] | 88 nM |  | 159 µM (≈ 65.3 µg/mL) | 15.9
20 | C[C@@]1(CO)Cc2cc(NC(=O)c3cnn4cccnc34)c(N3CCOCC3)nc2O1 (single isomer, unassigned) [Example 11] | 45 nM |  | 137 µM (≈ 56.2 µg/mL) | 
